Data reported in patent publication US11865126B2, “Method for treating anxiety disorders, headache disorders, and eating disorders with psilocybin” (priority 2019, dated 2024).

System: healthy subjects
Assay: Reading the Mind in the Eyes Test (RMET)
Format: in vivo, human
Description: In some embodiments, Reading the Mind in the Eyes Test (RMET) is utilized to evaluate the safety and/or efficacy of psilocybin. The RMET has 36 items, in which subjects are presented with a photograph of the eyes region of the face and must choose 1 of 4 adjectives or phrases to describe the mental state of the person pictured. A definition handout is provided at the beginning of the task and a practice item precedes the first trial.
The following list of outcome measures are non-exhaustive. • a. The short-term change from Baseline (Day −1 [Visit 2]) to Day 7 (Visit 5) in cognitive measures of attention, spatial and working memory and executive function was measured by a composite score of the CANTAB Panel (Spatial Working Memory [SWM], Rapid Visual Information Processing [RVP], Paired Associates Learning [PAL]). • b. The short-term change from Baseline (Day −1 [Visit 2]) to Day 7 (Visit 5) in Social Cognition Panel scales (Pictorial Empathy Test [PET], Reading the Mind in the Eyes Test [RMET], Toronto Empathy Questionnaire [TEQ], Social Value Orientation [SVO], Scale of Social Responsibility [SSR]). • c. The change from Baseline (Day −1 [Visit 2]) to Day 28 (Visit 6) in cognitive measures of attention, spatial and working memory and executive function as measured by a composite score of the CANTAB Panel (SWM, RVP, PAL). • d. The long-term change from Baseline (Day −1 [Visit 2]) to Day 84 (Visit 7) in Social Cognition Panel scales (PET, RMET, TEQ, SVO, SSR). • e. Dose-related differences between cognitive effects of psilocybin at Baseline (Day −1 [Visit 2]), Day 7 (Visit 5) and Day 28 (Visit 6), as measured by a composite score of the CANTAB Panel (SWM, RVP, PAL). • f. Dose-related differences between psychological effects of psilocybin at Baseline (Day −1 [Visit 2]), Day 7 (Visit 5) and Day 84 (Visit 7), as measured by Social Cognition Panel scales (PET, RMET, TEQ, SVO, SSR). • g. Differences in cognitive effects of psilocybin between psilocybin-naïve and experienced subjects at Baseline (Day −1 [Visit 2]), Day 7 (Visit 5) and Day 28 (Visit 6), as measured by a composite score of the CANTAB Panel (SWM, RVP, PAL). • h. Differences in Positive and Negative Affect Schedule (PANAS) after study drug administration on Day 0 (Visit 3). • i. Differences between psilocybin and placebo in the Emotion Recognition Test (ERT), Intra-Extra Dimensional Set Shift (IED), One Touch Stockings (OTS), Verbal Fluency and Digit Span Forward at Day 7 (Visit 5). • j. A composite score of the CANTAB Panel, including the following tests: • i. Spatial Working Memory (SWM) (performed at Visit 2, Visit 5, and Visit 6). • ii. Rapid Visual Information Processing (RVP) (performed at Visit 2, Visit 5, and Visit 6). • iii. Paired Associates Learning (PAL) (performed at Visit 2, Visit 5, and Visit 6). • k. Cognitive Flexibility Panel • i. Emotion Recognition Task (ERT) (performed at Visit 5). • ii. Intra-Extra Dimensional Set Shift (IED) (performed at Visit 5). • iii. One Touch Stockings (OTS) (performed at Visit 5). • iv. Verbal Fluency (performed at Visit 5). • v. Digit Span Forward (performed at Visit 5). • l. Five Dimension Altered States of Consciousness questionnaire (5D-ASC) (performed at Visit 3). • m. PANAS (performed at Visit 2 and Visit 3). • n. NEO-Five Factor Inventory (NEO-FFI) (performed at Visit 2, Visit 5, and Visit 7). • o. Symptom Checklist-90 item (SCL-90) (performed at Visit 2, Visit 5, and Visit 7). • p. Life Changes Inventory (LCI): The LCI measures changes in attitudes and values after near-death experiences often used to evaluate personal transformation following spiritually oriented experiences and practices. (performed at Visit 5 and Visit 7). • q. Social Cognition Panel scales • i. Pictorial Empathy Test (PET) (performed at Visit 2, Visit 5, and Visit 7). • ii. Reading the Mind in the Eyes Test (RMET) (performed at Visit 2, Visit 5, and Visit 7). • iii. Social Value Orientation (SVO) (performed at Visit 2, Visit 5, and Visit 7). • iv. […]

Q: With `CN(C)CCc1c[nH]c2cccc(OP(=O)(O)O)c12` [psilocybin] as the molecule, how does the “RMET change from baseline, LS mean difference Psilocybin 10 mg - Placebo” value (Day 7, MMRM) read?
A: 0.1

Q: And the “RMET change from baseline, LS mean difference Psilocybin 25 mg - Placebo” value (Day 7, MMRM)?
A: 0.2

Q: What about the “RMET change from baseline, LS mean difference Psilocybin 25 mg-10 mg” value (Day 7, MMRM) of the same molecule?
A: 0.0

Q: What about the “RMET change from baseline, LS mean difference Psilocybin 10 mg - Placebo” value (Day 84, MMRM) of the same molecule?
A: 0.2

Q: What about the “RMET change from baseline, LS mean difference Psilocybin 25 mg - Placebo” value (Day 84, MMRM) of the same molecule?
A: 0.5

Q: And the “RMET change from baseline, LS mean difference Psilocybin 25 mg-10 mg” value (Day 84, MMRM)?
A: 0.3
